Results taken from ChEMBL document CHEMBL5506050, “Discovery of Oral AMP-Activated Protein Kinase Activators for Treating Hyperlipidemia” (J Med Chem, 2024).
The source made the active and inactive calls. The calls are words filed in the database; no cut-off is given here.

Assays:
Mus musculus [1] = test: Downregulation of Pparg mRNA level in liver of high-fat diet-fed C57BL/6 mouse model at 200 mg/kg, po for 4 weeks by GO analysis; type: functional, organism-based
Syrian golden hamster [2] = test: Effect on body weight gain in high-fat diet-fed golden hamster at 50 to 200 mg/kg, po qd administered via gavage measured after 4 weeks; type: functional, organism-based; settings: Mesocricetus auratus, dose 50-200 mg/kg
Rhesus monkey [3] = test: Lipid lowering effect in Rhesus monkey assessed as LDL-C level at 35 mg/kg, NG qd treated for 35 days followed by drug washout for 14 days; type: functional, Macaca mulatta; settings: time 35 day
Syrian golden hamster [4] = test: Lipid lowering effect on high-fat diet-fed golden hamster assessed as decrease in serum LDL-C level at 100 mg/kg, po qd administered via gavage measured after 4 weeks relative to control; type: functional, Mesocricetus auratus; parameters: scale not given: the % may be the effect or the level left
[5] = target: AMP-activated protein kinase, AMPK (Homo sapiens) (UniProt P54646+O43741+P54619+Q9UGJ0+Q9Y478+Q13131+Q9UGI9); test: Activation of AMPK in human HepG2 cells assessed as decrease in intracellular lipid content at 10 uM incubated for 48 hrs by Oil Red O staining based analysis relative to control; type: cell-based; parameters: scale not given: the % may be the effect or the level left
Mus musculus [6] = test: Effect on Pcsk9 mRNA level in liver of diet-induced obese C57BL/6 mouse model harboring AMPKalpha LS-/- at 200 mg/kg, po for 4 weeks by GO analysis; type: functional, organism-based
Rhesus monkey [7] = test: Lipid lowering effect in Rhesus monkey assessed as decrease in blood LDL-C level at 35 mg/kg, NG qd treated for 35 days followed by drug washout for 14 days relative to control; type: functional, Macaca mulatta; parameters: scale not given: the % may be the effect or the level left; settings: time 35 day
Syrian golden hamster [8] = test: Lipid lowering effect on high-fat diet-fed golden hamster assessed as decrease in serum LDL-C level at 200 mg/kg, po qd administered via gavage measured after 4 weeks relative to control; type: functional, Mesocricetus auratus; parameters: scale not given: the % may be the effect or the level left
Mus musculus [9] = test: Effect on Lepr mRNA level in liver of diet-induced obese C57BL/6 mouse model harboring AMPKalpha LS-/- at 200 mg/kg, po for 4 weeks by GO analysis; type: functional, organism-based
Mus musculus [10] = test: Downregulation of Ccl2 mRNA level in liver of high-fat diet-fed C57BL/6 mouse model at 200 mg/kg, po for 4 weeks by GO analysis; type: functional, organism-based
[11] = Stability in human Caco-2 cells assessed as compound remaining at 10 ug/ml measured after 1 hr by LC-MS/MS analysis; type: ADME, cell-based; settings: at 10 µg/mL, read-out: Stability
Syrian golden hamster [12] = test: Lipid lowering effect on high-fat diet-fed golden hamster assessed as decrease in TG level in liver at 100 to 200 mg/kg, po qd administered via gavage measured after 4 weeks; type: functional, organism-based; settings: Mesocricetus auratus, dose 100-200 mg/kg
[13] = Tmax in female Rhesus monkey at 70 mg/kg, po or 7 mg/kg, iv measured for 36 hrs by LC-tandem MS analysis; type: ADME, organism-based, Macaca mulatta; settings: in vivo
[14] = Stability in human plasma assessed as compound remaining at 1 to 5 uM measured after 30 mins by LC-MS/MS analysis; type: ADME, cell-free; settings: dose 1-5 µM, read-out: Stability
Mus musculus [15] = test: Downregulation of Cidea mRNA level in liver of high-fat diet-fed C57BL/6 mouse model at 200 mg/kg, po for 4 weeks by GO analysis; type: functional, organism-based
[16] = Efflux ratio of apparent permeability across basal to apical side over apical to basal side in human Caco-2 cells at 21 uM incubated for 2 hrs by LC-MS/MS analysis; type: ADME, cell-based
Syrian golden hamster [17] = test: Lipid lowering effect on high-fat diet-fed golden hamster assessed as decrease in serum TG level at 6 mg/kg, po qd administered via gavage measured after 4 weeks relative to control; type: functional, Mesocricetus auratus; parameters: scale not given: the % may be the effect or the level left
Rhesus monkey [18] = test: Lipid lowering effect in Rhesus monkey assessed as decrease in serum LDL-C level at 35 mg/kg, NG qd treated for 35 days followed by drug washout for 14 days relative to control; type: functional, Macaca mulatta; parameters: scale not given: the % may be the effect or the level left; settings: time 35 day
[19] = AUC (0 to t) in female Rhesus monkey at 70 mg/kg, po or 7 mg/kg, iv measured for 36 hrs by LC-tandem MS analysis; type: ADME, organism-based, Macaca mulatta; settings: in vivo
Mus musculus [20] = test: Effect on Ccr2 mRNA level in liver of diet-induced obese C57BL/6 mouse model harboring AMPKalpha LS-/- at 200 mg/kg, po for 4 weeks by GO analysis; type: functional, organism-based
[21] = Cmax in female Rhesus monkey at 70 mg/kg, po or 7 mg/kg, iv measured for 36 hrs by LC-tandem MS analysis; type: ADME, organism-based, Macaca mulatta; settings: in vivo
Mus musculus [22] = test: Lipid lowering effect on high-fat diet-fed Kunming mouse assessed as serum total cholesterol level at 50 mg/kg, po qd via gavage for 7 days consecutively (reference value: 159.3 +/- 11.5 mg/dl); type: functional; settings: time 7 day
[23] = Oral bioavailability in female Rhesus monkey at 70 mg/kg measured for 36 hrs by LC-tandem MS analysis; type: ADME, organism-based, Macaca mulatta; settings: in vivo
Mus musculus [24] = test: Downregulation of Ccr2 mRNA level in liver of high-fat diet-fed C57BL/6 mouse model at 200 mg/kg, po for 4 weeks by GO analysis; type: functional, organism-based
Mus musculus [25] = test: Upregulation of Gadd45b mRNA level in liver of high-fat diet-fed C57BL/6 mouse model at 200 mg/kg, po for 4 weeks by GO analysis; type: functional, organism-based
Mus musculus [26] = test: Effect on Mvd mRNA level in liver of diet-induced obese C57BL/6 mouse model harboring AMPKalpha LS-/- at 200 mg/kg, po for 4 weeks by GO analysis; type: functional, organism-based
[27] = target: AMP-activated protein kinase, AMPK; test: Binding affinity to truncated AMPK (unknown origin) assessed as dissociation constant by CD analysis; type: protein-complex assay, Homo sapiens
[28] = Apparent permeability across apical to basal side in human Caco-2 cells at 2 uM incubated for 2 hrs by LC-MS/MS analysis; type: ADME, cell-based
Mus musculus [29] = test: Downregulation of Mogat1 mRNA level in liver of high-fat diet-fed C57BL/6 mouse model at 200 mg/kg, po for 4 weeks by GO analysis; type: functional, organism-based
Syrian golden hamster [30] = test: Lipid lowering effect on high-fat diet-fed golden hamster assessed as decrease in AST level in liver at 50 to 200 mg/kg, po qd administered via gavage measured after 4 weeks; type: functional, organism-based; settings: Mesocricetus auratus, dose 50-200 mg/kg
Mus musculus [31] = test: Lipid lowering effect on high-fat diet-fed C57BL/6J mouse assessed as decrease in serum LDL-C level at 40 mg/kg/day, po administered via gavage measured after 7 days relative to control; type: functional; parameters: scale not given: the % may be the effect or the level left; settings: time 7 day
[32] = target: Voltage-gated inwardly rectifying potassium channel KCNH2 (Homo sapiens, UniProt Q12809); test: Inhibition of hERG; type: toxicity
Syrian golden hamster [33] = test: Lipid lowering effect on high-fat diet-fed golden hamster assessed as decrease in ALT level in liver at 50 to 200 mg/kg, po qd administered via gavage measured after 4 weeks; type: functional, organism-based; settings: Mesocricetus auratus, dose 50-200 mg/kg
Homo sapiens = organism: Homo sapiens; test: Downregulation of serum TC level in human at 2000 mg bid for 7 days; type: functional; settings: time 7.0 day
Mus musculus [34] = test: Effect on Syvn1 mRNA level in liver of diet-induced obese C57BL/6 mouse model harboring AMPKalpha LS-/- at 200 mg/kg, po for 4 weeks by GO analysis; type: functional, organism-based
[35] = Stability in human Caco-2 cells assessed as compound remaining at 10 ug/ml measured after 3 hrs by LC-MS/MS analysis; type: ADME, cell-based; settings: at 10 µg/mL, read-out: Stability

Chain of Voltage-gated inwardly rectifying potassium channel KCNH2 (Q12809 whole entry): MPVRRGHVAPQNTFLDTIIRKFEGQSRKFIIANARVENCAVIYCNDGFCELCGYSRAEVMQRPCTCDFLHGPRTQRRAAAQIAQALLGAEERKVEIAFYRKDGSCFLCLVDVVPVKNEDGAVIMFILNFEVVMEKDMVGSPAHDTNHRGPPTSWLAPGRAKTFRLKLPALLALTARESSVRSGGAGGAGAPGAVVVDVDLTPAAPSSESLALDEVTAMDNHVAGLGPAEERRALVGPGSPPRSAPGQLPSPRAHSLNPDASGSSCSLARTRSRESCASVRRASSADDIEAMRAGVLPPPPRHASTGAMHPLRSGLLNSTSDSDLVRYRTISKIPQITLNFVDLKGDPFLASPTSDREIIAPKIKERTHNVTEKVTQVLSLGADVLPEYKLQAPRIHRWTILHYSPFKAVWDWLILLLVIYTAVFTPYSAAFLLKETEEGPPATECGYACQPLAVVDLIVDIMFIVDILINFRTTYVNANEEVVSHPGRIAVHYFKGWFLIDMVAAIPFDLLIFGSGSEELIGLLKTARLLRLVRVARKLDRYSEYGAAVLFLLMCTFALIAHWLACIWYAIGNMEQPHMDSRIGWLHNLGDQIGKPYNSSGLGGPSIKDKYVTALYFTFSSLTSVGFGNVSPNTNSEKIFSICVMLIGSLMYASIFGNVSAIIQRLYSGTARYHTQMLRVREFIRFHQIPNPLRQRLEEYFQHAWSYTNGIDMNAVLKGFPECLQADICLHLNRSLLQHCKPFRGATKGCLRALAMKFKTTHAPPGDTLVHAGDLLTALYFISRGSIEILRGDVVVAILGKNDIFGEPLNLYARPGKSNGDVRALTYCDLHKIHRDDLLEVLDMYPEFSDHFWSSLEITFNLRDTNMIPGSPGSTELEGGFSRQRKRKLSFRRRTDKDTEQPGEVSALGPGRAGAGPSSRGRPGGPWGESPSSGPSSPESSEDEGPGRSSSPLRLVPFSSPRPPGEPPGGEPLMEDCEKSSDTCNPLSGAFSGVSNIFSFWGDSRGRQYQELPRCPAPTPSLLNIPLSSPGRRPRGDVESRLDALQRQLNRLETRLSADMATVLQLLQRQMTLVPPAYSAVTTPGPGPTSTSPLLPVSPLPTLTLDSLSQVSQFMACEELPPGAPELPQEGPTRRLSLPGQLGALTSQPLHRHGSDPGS

CC(=O)OC[C@H]1O[C@@H](n2cnc3c(Nc4cccc(O)c4)ncnc32)[C@H](OC(C)=O)[C@@H]1OC(C)=O
Activity (Mus musculus [1]): Active | Activity (Syrian golden hamster [2]): inactive | Activity (Rhesus monkey [3]): 1.25 mmol/L | Activity (Syrian golden hamster [4]): 36.2% | Activity [5]: 64% | Activity (Mus musculus [6]): inactive | Activity (Rhesus monkey [7]): 11.93% | Activity (Syrian golden hamster [8]): 42% | Activity (Mus musculus [9]): inactive | Activity (Mus musculus [10]): Active | remaining at 1 h, 10 ug/ml [11]: 77% | Activity (Syrian golden hamster [12]): Active | Tmax [13]: 2.25 h | remaining at 0.5 h, up to 5 µM [14]: ~70% | Activity (Mus musculus [15]): Active | efflux ratio at 2 h, 21 µM [16]: 1.9 | Activity (Syrian golden hamster [17]): 52.8% | Activity (Rhesus monkey [18]): 4.83% | AUC(0-t) at 36 h [19]: 102 ng·h/mL | Activity (Mus musculus [20]): inactive | Cmax [21]: 25.9 ng/mL | Activity (Mus musculus [22]): 151.7 mg/dL | bioavailability [23]: 3.75% | Activity (Mus musculus [24]): Active | Activity (Mus musculus [25]): Active | Activity (Mus musculus [26]): inactive | Kd [27]: 210 nM | Papp A→B at 2 h, 2 µM [28]: 8.6 ×10⁻⁶ cm/s | Activity (Mus musculus [29]): Active | Activity (Syrian golden hamster [30]): Active | Activity (Mus musculus [31]): 32.6% | IC50 [32]: > 30000 nM | Activity (Syrian golden hamster [33]): Active | Activity (Homo sapiens): Active | Activity (Mus musculus [34]): inactive | remaining at 3 h, 10 ug/ml [35]: 52%
